Here are results for five compounds from patent US5874078A, “Reagent composition of glutamate dehydrogenase from pseudomonas” (Toyo Boseki Kabushiki Kaisha, priority 1994, dated 1999).

Molecules are shown by their SMILES. Like-named read-outs stand apart in the source and are kept apart here.

Assay [1] relates to glutamate dehydrogenase from Pseudomonas sp. 433-3 (FERM P-14092). Nature of the assay: Km values of glutamate dehydrogenase. The format is biochemical. Here is the method: The above reaction mixture solution (2.9 ml) is taken in a cuvette and subjected to a preliminary heating at 30° C. for about five minutes. Then the reaction is initiated by adding 0.1 ml of an enzyme solution thereto, decrease in absorbance of 340 nm in a spectrophotometer controlled at 30° C. is recorded for 3-4 minutes and, out of its linear portion, the decrease in the absorbance per minute is determined. A blank test is carried out according to the same operations as above except that 0.1M Tris-HCl buffer (pH: 8.3) is added instead of the enzyme solution. […]
The above reaction mixture solution (2.9 ml) was taken in a cuvette and subjected to a preliminary heating at 30° C. for about five minutes. Then the reaction was initiated by adding 0.1 ml of an enzyme solution thereto, […] at 30° C. was recorded for 3-4 minutes and, out of its linear portion, the decrease in the absorbance per minute was determined. A blank test was carried out according to the same operations as above except that 0.1M Tris-HCl buffer (pH: 9.0) was added instead of the enzyme solution.

Assay [2] relates to NAD+-dependent glutamate dehydrogenase (EC 1.4.1.2) from Synechocystis sp. Conditions: read-out: Km Value to NH3; Table 3; FEBS Lett. 285, 35 (1991); cited from earlier work.
Assay [3] concerns the target NAD+-dependent glutamate dehydrogenase (EC 1.4.1.2) from Peptococcus aerogene (Peptoniphilus asaccharolyticus, UniProt P28997). The following applies: read-out: Km Value to NH3; Table 3; Can. J. Microbiol. 18, 881 (1972); cited from earlier work.
Assay [4] has as its system NAD+-dependent glutamate dehydrogenase (EC 1.4.1.2) from Clostridium sp. SB4. The following applies: read-out: Km Value to NH3; Table 3; The Enzymes, 3rd Ed. 11, 293 (1975); cited from earlier work.
Assay [5] deals with glutamate dehydrogenase from Pseudomonas sp. 433-3 (FERM P-14092). Kind of assay: Activation by ADP (reductive amination activity). The format is biochemical. The following applies: pH 8.3, 30° C. Here is the method:
(§1) A method of measuring an activity of the glutamate dehydrogenase of the present invention by means of a reductive amination will be as follows.
(§2) The above reaction mixture solution (2.9 ml) is taken in a cuvette and subjected to a preliminary heating at 30° C. for about five minutes. Then the reaction is initiated by adding 0.1 ml of an enzyme solution thereto, decrease in absorbance of 340 nm in a spectrophotometer controlled at 30° C. is recorded for 3-4 minutes and, out of its linear portion, the decrease in the absorbance per minute is determined. A blank test is carried out according to the same operations as above except that 0.1M Tris-HCl buffer (pH: 8.3) is added instead of the enzyme solution. The way of expression of an activity of the glutamate dehydrogenase is in such a manner that the amount of the enzyme by which 1 micromole of NADH is oxidized per minute under the above-mentioned conditions is defined as one unit (U).
(§3) ADP was added to the reagent for measuring the activity of glutamate dehydrogenase of the present invention (a reductive amination) to make it 2.5 mM and the resulting activity was compared with that where nothing was added.

Assay [6] addresses T1, Bovine Liver CLDH (glutamate dehydrogenase derived from bovine liver) (Bos taurus, UniProt P00366).
T1 construct: Bovine Liver CLDH; from tissue; host or cells: bovine liver
Nature of the assay: Activation by ADP (reductive amination activity). The format is biochemical. Conditions: 2.5 mM ADP, pH 8.3, 30° C., read-out: activity with 2.5 mM ADP (without ADP = 100%). Here is the method: as §1, §2, §3

Chain of NAD+-dependent glutamate dehydrogenase (EC 1.4.1.2) from Peptococcus aerogene (P28997 whole entry): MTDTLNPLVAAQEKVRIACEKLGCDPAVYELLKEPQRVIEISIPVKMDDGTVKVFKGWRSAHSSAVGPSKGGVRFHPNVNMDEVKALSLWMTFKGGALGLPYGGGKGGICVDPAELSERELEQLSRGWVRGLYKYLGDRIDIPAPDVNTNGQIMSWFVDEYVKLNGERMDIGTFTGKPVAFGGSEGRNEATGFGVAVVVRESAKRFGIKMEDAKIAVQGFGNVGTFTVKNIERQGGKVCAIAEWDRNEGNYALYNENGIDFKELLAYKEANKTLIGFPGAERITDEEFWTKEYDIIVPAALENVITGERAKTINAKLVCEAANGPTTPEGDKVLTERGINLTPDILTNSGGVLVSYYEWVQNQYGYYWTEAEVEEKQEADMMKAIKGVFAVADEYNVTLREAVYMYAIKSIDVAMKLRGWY
T1 sequence (P00366 58-558): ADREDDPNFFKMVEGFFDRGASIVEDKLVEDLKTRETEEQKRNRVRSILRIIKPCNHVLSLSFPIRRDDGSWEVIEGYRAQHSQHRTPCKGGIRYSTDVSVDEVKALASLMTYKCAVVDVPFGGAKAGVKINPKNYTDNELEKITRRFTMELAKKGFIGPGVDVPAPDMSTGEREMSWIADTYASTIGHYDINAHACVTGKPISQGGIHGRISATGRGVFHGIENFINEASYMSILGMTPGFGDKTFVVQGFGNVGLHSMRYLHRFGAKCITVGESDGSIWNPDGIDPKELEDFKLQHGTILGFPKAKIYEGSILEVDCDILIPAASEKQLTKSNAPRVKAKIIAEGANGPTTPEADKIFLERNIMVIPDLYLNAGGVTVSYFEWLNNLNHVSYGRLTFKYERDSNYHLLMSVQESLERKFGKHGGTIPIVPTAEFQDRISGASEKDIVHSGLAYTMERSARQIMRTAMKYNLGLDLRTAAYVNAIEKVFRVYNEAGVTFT

One may read the Km as the substrate concentration at which the rate is half of its maximum. As to `NC(=O)C1=CN([C@@H]2O[C@H](COP(=O)(O)OP(=O)(O)OC[C@H]3O[C@@H](n4cnc5c(N)ncnc54)[C@H](O)[C@@H]3O)[C@@H](O)[C@H]2O)C=CC1` [NADH], the Michaelis constant (Km) in assay [1] (read-out: Km value to NADH) worked out at 0.19 mM.
In the case of `N` [ammonia], the Michaelis-Menten constant (Km) in assay [2] is 4.5 mM; in assay [3] it was 18.4 mM; in assay [1] (Table 3, This Invention, read-out: Km Value to NH3) it was 8.5 mM; in assay [1] (read-out: Km value to ammonia), 8.5 mM; in assay [4] it was 0.32 mM.
`NC(=O)c1ccc[n+]([C@@H]2O[C@H](COP(=O)(O)OP(=O)([O-])OC[C@H]3O[C@@H](n4cnc5c(N)ncnc54)[C@H](O)[C@@H]3O)[C@@H](O)[C@H]2O)c1` [NAD^+]: in assay [1] (read-out: Km value to NAD^+), the Km was 0.1 mM.
For the compound `Nc1ncnc2c1ncn2[C@@H]1O[C@H](COP(=O)(O)OP(=O)(O)O)[C@@H](O)[C@H]1O` [ADP], in assay [5], the “activity with 2.5 mM ADP (without ADP = 100%)” value amounted to 100%. The activity at 2500 µM in assay [6] is 145%.
Take `N[C@@H](CCC(=O)O)C(=O)O` [L-glutamic acid]: the Km in assay [1] (read-out: Km value to L-glutamic acid) turned out to be 17 mM.
